Activity calls are given as the source filed them. How the calls were made is not given here.
Tests used:
[1] = concentration-response yeast growth inhibition under permissive conditions, counter-assay for yeast lifespan-shortening chemical project (AID 850); details: Saccharomyces cerevisiae growth inhibition, permissive control, measured here: maximum growth inhibition, stronger effect = higher value;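 further: growth read as optical density after one day of incubation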
[2] = test system: Saccharomyces cerevisiae growth inhibition, permissive control; assay: as above

Row | SMILES | IC50 [2] | inhibition ([1]; at 50 µM) [%] | other results
1 | Clc1ccc(CCNc2nc3ccccc3s2)cc1 | > 100 µM (inactive) |  | inhibition ([1]; at 0.195 µM): -6.19%
2 | CCN1CCN(c2ncnc3c2sc(=S)n3-c2ccccc2)CC1 | > 100 µM (inactive) |  | inhibition ([1]; at 0.195 µM): 15.6%
3 | O=C1CCN2C=Nc3cccc4ccc1c2c34 | > 100 µM (inactive) |  | inhibition ([1]; at 25 µM): 26%
4 | O=C(CSCc1ccco1)Nc1cc(C(F)(F)F)ccc1N1CCOCC1 | > 100 µM (inactive) |  | inhibition ([1]; at 0.781 µM): 16.7%
5 | O=C1c2ccccc2C(=O)c2c1cccc2N1CCOCC1 | > 100 µM (inactive) |  | inhibition ([1]; at 0.195 µM): 13.5%
6 | Cc1cc(/C=N/n2cnnc2)c(C)n1-c1ccc(OCc2ccc(Cl)cc2Cl)cc1 | > 100 µM (inactive) |  | inhibition ([1]; at 25 µM): 25.7%
7 | CCC(C)NC(=O)C1CCN(S(=O)(=O)c2cccc3cccnc23)CC1 (centres undefined) | > 100 µM (inactive) | 12.2 | 
8 | Cc1ncc(CC(=O)n2cc(C(=O)c3cc(Cl)ccc3O)cn2)s1 | 5.42 µM | 100 | 
9 | CN1CSC(=S)N(C)C1 | 12.6 µM | 97 | 
10 | CCCn1c(C)cc(C(=O)COC(=O)c2ccc[nH]c2=O)c1C | > 100 µM (inactive) | 17.4 | 
11 | O=c1cc(-c2ccccc2)n(S(=O)(=O)c2ccccc2)o1 | > 100 µM (inactive) |  | inhibition ([1]; at 0.195 µM): 2.71%
12 | CC1=C(C)/C(=N\OS(=O)(=O)c2ccc(C)cc2)C=CC1=O | 8.79 µM |  | inhibition ([1]; at 25 µM): 99.2%
13 | O=C(O)c1ccc(SCc2cnc(Cl)s2)cc1 | 4.91 µM | 99.2 | 
14 | Cc1ccc(C(=O)Oc2ccc(Cl)c3cccnc23)cc1[N+](=O)[O-] | 40.6 µM | 73.3 | 
15 | CCOC(=O)c1c(/N=C/c2cccc([N+](=O)[O-])c2O)sc(C)c1C | 30.7 µM | 58.5 | 
16 | COC(=O)c1ccc(C(=O)OC)c(NC(=O)CSc2cccc[n+]2[O-])c1 | 1.09 µM |  | inhibition [1]: 100%
17 | O=C(Nc1nc(-c2ccccn2)cs1)c1ccc(Cl)s1 | 2.09 µM |  | inhibition ([1]; at 12.5 µM): 91.4%
18 | Cc1c(N=Cc2cc(Br)cc(Br)c2O)cccc1C(=O)O | 6.96 µM | 99 | 
19 | COc1ccc(C(=O)NC(=S)NNC(=O)c2cnccn2)cc1 | 14.2 µM | 71.2 | 
20 | CC(C)(C)c1ccc(-c2nc(-c3ccncc3)no2)cc1 | 47 µM | 48.7 | 
21 | Cc1sc2ncnc(N/N=C/c3ccccc3O)c2c1C | 32.2 µM | 94.2 | 

Row | SMILES | IC50 [2] | inhibition ([1]; at 50 µM) [%] | other results
22 | O=C1c2ccccc2NC(c2ccc(-c3ccc(Br)cc3)o2)N1O (centres undefined) | 18.9 µM | 99 | 
23 | Cc1cccc(/C=C/C(=O)c2cc(Br)ccc(=O)c2O)c1 | 12.2 µM | 83.2 | 
24 | O=C(O)c1ccc2c3c(ncnc13)-c1ccccc1C2=O | 5.54 µM | 98.6 | 
25 | O=C(O)C1C2C=CC(O2)C1C(=O)NC1CCCc2ccccc21 (centres undefined) | > 100 µM (inactive) |  | inhibition ([1]; at 6.25 µM): 10.9%
26 | CCOC(=O)CNC(=O)CSc1nnc(-c2ccco2)n1Cc1ccco1 | > 100 µM (inactive) |  | inhibition ([1]; at 0.781 µM): 14.2%
27 | Cc1cc(C)nc(N/N=C/C2=C(N3CCOCC3)C(=C\c3ccc(Cl)cc3)/CC2)n1 | > 100 µM (inactive) |  | inhibition ([1]; at 3.125 µM): 5.26%
28 | O=c1c(-c2ccc(Cl)cc2)[n+]([O-])c2ccccc2n1O | 7.82 µM |  | inhibition ([1]; at 25 µM): 99.8%
29 | CCCc1ccc(OCC(=O)NNC(=S)NC(=O)c2ccco2)cc1 | 10.6 µM | 98.8 | 
30 | CC1=NOC(=O)/C1=C/c1ccc(-c2ccc(Cl)cc2)o1 | 11 µM |  | inhibition ([1]; at 25 µM): 90.5%
31 | Clc1ccc(N/N=C/c2cccnc2)cc1 | 19 µM |  | inhibition ([1]; at 25 µM): 78.3%
32 | CCCc1cc(-c2n[nH]c(=S)n2C(C)c2ccccc2)cs1 (centres undefined) | > 100 µM (inactive) |  | inhibition ([1]; at 0.391 µM): 1.3%
33 | O=C(NC1CCCCC1)Sc1ccc(Cl)cc1 | > 100 µM (inactive) | 24.2 | 
34 | CCCCCCCCCCCCCCCC[n+]1cccc(C(=O)N(CC)CC)c1 | 1.82 µM | 101 | 
35 | COC(=O)CSCc1nc2ccccc2[nH]c1=O | > 100 µM (inactive) |  | inhibition ([1]; at 1.563 µM): 20.2%
36 | Cc1ccc(-n2c(Cl)c(Cl)nc(Cl)c2=O)cc1 | 14 µM | 102 | 
37 | Cc1cc(O)c(/C=N/Nc2ccc(Cl)cc2)c(=O)o1 | 3.93 µM |  | inhibition ([1]; at 25 µM): 98.2%
38 | CCN1/C(=C(\O)c2ccccc2)C(=O)c2ccccc2S1(=O)=O | > 100 µM (inactive) |  | inhibition ([1]; at 1.563 µM): 19.4%
39 | Cc1cccc(C(=O)CC(=O)c2cc(Cl)ccc2O)c1 | 35.8 µM | 52.9 | 
40 | O=C1CCCC/C1=N\Nc1ccc(OCc2ccccc2)cc1 | 29.7 µM | 72.5 | 
41 | Oc1c(Cl)cc(Cl)c(Cl)c1Cc1c(O)c(Cl)cc(Cl)c1Cl | > 100 µM (inactive) |  | inhibition ([1]; at 6.25 µM): 23.3%
42 | CC(C)(C)C(O)C(Oc1ccc(Cl)cc1)n1cncn1 (centres undefined) | 2.15 µM |  | inhibition ([1]; at 12.5 µM): 95.1%

Row | SMILES | IC50 [2] | inhibition ([1]; at 50 µM) [%] | other results
43 | Cc1cccnc1Nc1nc(-c2ccccn2)cs1 | 37.9 µM | 94.5 | 
44 | O=[N+]([O-])c1cccc(/C=N/n2cnnc2)c1O | 21 µM | 76.8 | 
45 | c1ccc(Cc2nnc3sc(-c4ccco4)nn23)cc1 | > 100 µM (inactive) |  | inhibition ([1]; at 25 µM): 4.05%
46 | CC1CCC2(CC1)NC(=S)N(c1ccccc1)N2 (centres undefined) | 14.1 µM | 97.5 | 
47 | O=C(OCn1ncc(Cl)c(Cl)c1=O)c1cccc(C(F)(F)F)c1 | > 100 µM (inactive) | 12.7 | 
48 | CCOC(=O)c1c(N)sc(C(O)(C(F)(F)F)C(F)(F)F)c1-c1ccc(Cl)cc1 | > 100 µM (inactive) |  | inhibition ([1]; at 0.781 µM): 7.92%
49 | Clc1ccc2[nH]c3c(c2c1)CCc1cn[nH]c1-3 | 5.72 µM |  | inhibition ([1]; at 25 µM): 93.8%
50 | Cc1ccc(C)c(-n2nnnc2SCC(=O)Nc2cccc(-c3nnc4n3CCCCC4)c2)c1 | > 100 µM (inactive) | 17.5 | 
51 | CC(NC(=O)Nc1ccc(Cl)cc1)C(c1cccs1)N1CCOCC1 (centres undefined) | > 100 µM (inactive) |  | inhibition ([1]; at 0.781 µM): 8.7%
52 | Fc1ccc(Br)cc1C1C=C(c2cccnc2)Nc2ncnn21 (centres undefined) | > 100 µM (inactive) | 26.3 | 
53 | OC(CNCC1CCCO1)Cn1c2ccc(Br)cc2c2cc(Br)ccc21 (centres undefined) | 41 µM | 98.8 | 
54 | O=C(O)CCC(=O)N1CCN(c2nc(-c3ccccc3Cl)c3cc(Br)ccc3n2)CC1 | 32 µM | 98.3 | 
55 | COc1ccc(Nc2cnn(-c3nc4ccccc4s3)c(=O)c2Cl)cc1 | 44.2 µM | 60.8 | 
56 | O=C(CSc1cccc[n+]1[O-])c1cc2ccccc2o1 | 3.68 µM | 99.2 | 
57 | Cc1nn(-c2ccc(F)cc2)c2sc(C(=O)O)cc12 | 49.1 µM | 60.6 | 
58 | Cc1ccc(Nc2cc(C)nn2-c2nc(C)cc(=O)[nH]2)cc1 | 0.708 µM |  | inhibition ([1]; at 6.25 µM): 96.6%
59 | N#Cc1ccccc1NC(=O)c1ccc2c(Cl)c3c(nc2c1)CCCC3 | > 100 µM (inactive) |  | inhibition ([1]; at 3.125 µM): 13.6%
60 | Clc1ccc(COC(Cn2ccnc2)c2ccc(Cl)cc2Cl)c(Cl)c1 (centres undefined) | < 0.098 µM | 101 | 
61 | Cc1ccc(CNC(=O)c2ccc(Cn3nc(C)c(Cl)c3C)o2)cc1 | 17.2 µM | 99.8 | 
62 | COc1ccc(-c2n[nH]c(C(F)(F)F)c2-c2cc3ccccc3o2)c(O)c1 | 36.6 µM | 53.6 | 
63 | NC(N)=N/N=C/c1ccc(OCc2ccc(Cl)cc2Cl)cc1 | 28.1 µM | 101 | 

Row | SMILES | IC50 [2] | inhibition ([1]; at 50 µM) [%] | other results
64 | COc1ccc(C(=O)/C=C/N2CCCCC2)cc1OC | 29.4 µM | 91.2 | 
65 | CC1=CC(=O)c2ccccc2C1=O | 17.7 µM | 88.6 | 
66 | CCCCCCCCC/C(=N\O)c1ccccn1 | 5.48 µM | 101 | 
67 | Cc1ccc2nc(/C(C#N)=C\c3ccc([N+](=O)[O-])o3)[nH]c2c1 | 9.15 µM | 99.4 | 
68 | O=C(/C(=N/N=C/c1ccc(O)c(O)c1O)c1ccccc1)c1ccccc1 | > 100 µM (inactive) |  | inhibition ([1]; at 0.781 µM): 5.74%
69 | C=CCn1c(C)cc(C(=O)CSc2nnc(NCc3ccccc3)s2)c1C | > 100 µM (inactive) | 22.4 | 
70 | CC1CCCC2(C1)NC(=S)N(c1ccccc1)N2 (centres undefined) | 20.5 µM | 78.8 | 
71 | O=C1C=C(c2ccc(Cl)cc2)C(=O)N1Nc1ccccc1 | 6.75 µM | 99.4 | 
72 | CC(C)(C)c1cc(C(c2cccnc2)N2CCN(CCO)CC2)cc(C(C)(C)C)c1O (centres undefined) | 48.7 µM | 53.3 | 
73 | O=C(/C(=C/O)N=Nc1ccccc1)c1ccncc1 | 13.3 µM | 100 | 
74 | Cc1cc(=O)[nH]c(SCc2nc3ccccc3s2)n1 | > 100 µM (inactive) |  | inhibition ([1]; at 25 µM): 13%
75 | O=C1C(=C2CCCCC2)SC(=S)N1Cc1ccco1 | > 100 µM (inactive) | 11.2 | 
76 | Oc1ccc2ccccc2c1N=Nc1ccccn1 | 25 µM | 97.5 | 
77 | Cc1nn(-c2cccc(C(F)(F)F)c2)c(Cl)c1/C=N/Nc1cccc(C(=O)O)c1 | 41.2 µM | 81.6 | 
78 | CC1(C)C[C@H]2C=C(C=O)[C@]3(C=O)C[C@]3(C)[C@H]2C1 | 4.38 µM | 100 | 
79 | COc1ccc(-c2cc(-c3ccccc3O)[nH]n2)cc1 | > 100 µM (inactive) |  | inhibition ([1]; at 1.563 µM): 3.65%
80 | O=C(/C=C/c1ccccc1Cl)c1ccccc(=O)c1O | 11.5 µM | 101 | 
81 | CCCCN(CCCC)C(=S)N/N=C/c1c(C)[nH]n(-c2ccccc2)c1=O | > 100 µM (inactive) |  | inhibition ([1]; at 0.781 µM): 19.7%
82 | CC(=O)/C(=N\Nc1ccc(C)cc1)N1CCOCC1 | 5.2 µM | 96.4 | 
